These results are taken from US20100179324A1, “ANTI-TUMOR AGENT COMPRISING SULPHOSTIN OR SULPHOSTIN-RELATED COMPOUND AS THE ACTIVE INGREDIENT” (Microbial Chemistry Research Foundation, priority 2007, published 2010).

In data set [1] the test system is Colon26 colorectal cancer cells. Kind of data set: Anti-tumor effect on Colon26 (Experimental Example 1), transplanted mice. It counts as in vivo. Particulars: for suppression rate: tumor weight Day 28 vs control group. The procedure:
(§1) Also, in the Examples, the “suppression rate” was calculated using the following formula.
(§2) Suppression rate (%)=(1−tumor weight in the administration group/tumor weight in the control group)×100
(§3) Six-week-old BALB/cAnNCrj female mice were used for this test. The following six groups were provided: Group 1 in which physiological saline (solvent) was administered; Group 2 in which sulphostin was administered at a dose of 200 mg/kg; Group 3 in which sulphostin was administered at a dose of 50 mg/kg; Group 4 in which PT-100 was administered at a dose of 200 mg/kg; Group 5 in which PT-100 was administered at a dose of 50 mg/kg; and Group 6 in which Furtulon was administered at a dose of 30 mg/kg. The number of animals was set to eight in Group 1 (control group) and to six in each of Groups 2 to 6 (drug administration groups).
(§4) On Day 0, 2×10^5 Colon26 colorectal cancer cells were transplanted into the groin of the mice. Each of sulphostin and PT-100 was intraperitoneally administered to the mice at the above dose once in a day on Days 1 to 6, 8 to 13, 15 to 20 and 22 to 27. Furtulon was orally administered following a similar administration schedule. In use, sulphostin and PT-100 were each diluted with physiological saline to have an intended concentration; and Furtulon was suspended in 0.5% sodium carboxymethyl cellulose and then diluted with physiological saline to have an intended concentration. On Day 28, the tumor was taken out from each mouse and weighed, to thereby determine the effect of each drug. In addition, the presence or absence of side effects of each drug was confirmed by monitoring a change in body weight of the mouse in the course of the treatment and observing the degree of hair loss in the mouse after administration.

The test system is the same in data set [2]. In words: Anti-tumor effect on advanced Colon26 (Experimental Example 2), drug from Day 10. The data set is classed as in vivo, mouse. The procedure:
as §1, §2
as §3, with “of 50” for “of 200”, “of 3.1” for “of 50”, “to seven” for “to eight”, “to five” for “to six”
as §4, with “mice. Administration of each drug was initiated from Day 10 when the transplanted cancer cells were thought to grow.” for “mice.”, “Days 10” for “Days 1”, “to 18 and 20” for “to 6, 8”, “to 25.” for “to 13, 15 to 20 and 22 to 27.”, “mouse” for “mouse in the course of the treatment”, “mouse in the course of the treatment.” for “mouse after administration.”

Another data set has as its system B16-BL6 melanoma cells. In words: Anti-tumor effect on B16-BL6 (Experimental Example 3), transplanted mice. It counts as in vivo, mouse. Particulars: tumor weight Day 21 vs control group. The procedure: as §1, §2
Five-week-old C57BL/6NCrj female mice were used for this test. The following three groups were provided: Group 1 in which physiological saline (solvent) was administered; Group 2 in which sulphostin was administered at a dose of 200 mg/kg; and Group 3 in which sulphostin was administered at a dose of 50 mg/kg. The number of animals was set to seven in Group 1 (control group) and to five in each of Groups 2 and 3 (drug administration groups).
On Day 0, 2×10^5 B16-BL6 melanoma cells were transplanted into the groin of the mice. Twenty four hours after transplantation, sulphostin was intraperitoneally administered to the mice at the above respective doses once in a day on Days 1 to 5, 7 to 12, and 14 to 19. In use, sulphostin was diluted with physiological saline to have an intended concentration. On Day 21, the tumor was taken out from each mouse and weighed, to thereby determine the effect of sulphostin.

The nature of data set [3]: Toxicity test on mouse (Experimental Example 4). The data set is classed as in vivo. Particulars: i.p. twice a day for 10 days; for Heart weight (Avg.) / Left kidney weight (Avg.) / Liver weight (Avg.) / Lung weight (Avg.) / Right kidney weight (Avg.) / Spleen weight (Avg.) / Thymus weight (Avg.): dissected Day 19; for change in body weight: normal mice. How it is done: Four-week-old female ICR mice (Crj: CD-1) were used for this test. The following six groups were provided: Group 1 in which physiological saline (solvent) was administered; Group 2 in which sulphostin was administered at a dose of 50 mg/kg; Group 3 in which sulphostin was administered at a dose of 25 mg/kg; Group 4 in which PT-100 was administered at a dose of 50 mg/kg; Group 5 in which PT-100 was administered at a dose of 25 mg/kg; Group 6 in which PT-100 was administered at a dose of 12.5 mg/kg; and Group 7 in which PT-100 was administered at a dose of 6.3 mg/kg. Note that each of the above doses is a dose for each administration. The number of animals was set to three in each of the groups. Each drug was intraperitoneally administered to each mouse twice in a day for 10 consecutive days, and the mouse was weighed at an appropriate time and monitored over time. On Day 19 after initiation of administration, each mouse was dissected under anesthesia and examined for remarks.

The next data set has as its system EL-4 mouse thymoma cells. Kind of data set: Test on cell toxicity, MTT method, EL-4. The data set is classed as cell-based. Particulars: 48 h, EL4 thymoma, two days incubation. How it is done:
(§5) The inhibitory effect of sulphostin on the proliferation of tumor cells in vitro was investigated. The culture liquid used was a 10% FCS-containing RPMI1640 medium, and incubation was performed at 37° C. in 5% CO2-air. EL-4 mouse thymoma cells, Colon-26 mouse colon cancer cells and B16-BL6 mouse melanoma cells were incubated at 1×10^4 cells/well for two days, and then the number of cells was measured by the MTT method. Specifically, MTT (0.4% and 10 μL) was added to each cell culture, followed by incubating for four hours. Further, 20% sodium dodecyl sulphate (SDS) was added thereto in an amount of 100 μL, and each plate was measured for absorbance at 570 nm and 690 nm using a microplate reader. Sulphostin was added to the wells simultaneously with the initiation of the tumor cell incubation.
A general note: Tetrazolium assays rely on reduction of a dye to a coloured formazan, in cell work by metabolically active cells.

Data set [4] concerns Colon-26 mouse colon cancer cells. In words: Test on cell toxicity, MTT method, Colon-26. Particulars: Colon 26, 48 h, Colon26 colon cancer, two days incubation. It counts as cell-based. The procedure: as §5
Data set [5] relates to B16-BL6 mouse melanoma cells. Kind of data set: Test on cell toxicity, MTT method, B16-BL6. It counts as cell-based. Particulars: 48 h, two days incubation. How it is done: as §5
The mark [6] stands for this setting: 50 mg/kg intraperitoneal once a day from Day 1.
The mark [7] stands for this setting: 50 mg/kg intraperitoneal, six mice per group.
The mark [8] stands for this setting: 200 mg/kg intraperitoneal once a day from Day 1.
Setting [9] is: 200 mg/kg intraperitoneal, six mice per group.
[10] abbreviates: 3.1 mg/kg intraperitoneal from Day 10, tumor weight Day 28 vs control group.
[11] abbreviates: 50 mg/kg intraperitoneal from Day 10, tumor weight Day 28 vs control group.

Regarding `C[C@H]1O[C@@H](n2cc(F)c(=O)[nH]c2=O)[C@H](O)[C@@H]1O` [Furtulon, Doxifluridine], in data set [1] (30 mg/kg oral), the tumor regression entry is “the tumor was not regressed”. For the same compound, the suppression rate in data set [1] (30 mg/kg oral once a day from Day 1) is listed as 56.9%; in data set [2] (30 mg/kg oral from Day 10, tumor weight Day 28 vs control group), 47.0%.

Regarding `CC(C)[C@H](N)C(=O)N1CCC[C@H]1B(O)O` [PT-100], the “hair loss by continuous administration” value in data set [1] (50 mg/kg intraperitoneal) and in data set [1] (200 mg/kg intraperitoneal) was “extremely observed throughout the body” throughout. For the same compound, the suppression rate was 66.7% in data set [1] (setting [6]) and 62.3% in data set [1] (setting [8]). The tumor regression result in data set [1] (setting [7]) and in data set [1] (setting [9]) was “the tumor was not regressed” throughout. Moreover, in data set [1] (200 mg/kg intraperitoneal), the “loss of body weight by continuous administration” value was “considerably observed”. Besides, the results for the “suppression rate on tumor weight” value in data set [2] (setting [10]) and in data set [2] (setting [11]) were 51.5% and 70.8%, respectively.

Regarding `N[C@H]1CCCN([P@@](N)(=O)NS(=O)(=O)O)C1=O` [Sulphostin, 3(S)-amino-1-((R)-amino(sulfoamino)phosphinyl)-2-piperidone], the “hair loss by continuous administration” value in data set [1] (50 mg/kg intraperitoneal) and in data set [1] (200 mg/kg intraperitoneal) was “hardly observed” throughout. The “loss of body weight by continuous administration” value is “not observed” in data set [1] (50 mg/kg intraperitoneal); “not observed” in data set [1] (200 mg/kg intraperitoneal); “not observed” in data set [2] (intraperitoneal from Day 10, dose not specified (groups 50 and 3.1 mg/kg)). For the same compound, the suppression rate in data set [1] (setting [6]) worked out at 87.8%; in data set [1] (setting [8]), 91.7%; in the data set on B16-BL6 melanoma cells (setting [6]), 53.3%; in the data set with B16-BL6 melanoma cells (setting [8]) it was 51.7%. The tumor regression entry in data set [1] (setting [7]) and in data set [1] (setting [9]) was “two out of six mice” each time. Moreover, the “suppression rate on tumor weight” value in data set [2] (setting [10]) is reported as 66.2%; in data set [2] (setting [11]) it was 87.3%. Further, the “abnormalities during monitoring and in remarks after dissection” value in data set [3] (25 mg/kg per administration) and in data set [3] (50 mg/kg per administration) was “nor did they show any abnormalities” throughout. For the same compound, the entries for the “Heart weight (Avg.)” value in data set [3] (25 mg/kg per administration) and in data set [3] (50 mg/kg per administration) were 118.3 mg and 120 mg, respectively. The “Left kidney weight (Avg.)” value in data set [3] (25 mg/kg per administration) is 204.7 mg; in data set [3] (50 mg/kg per administration), 202.3 mg. In addition, the “Liver weight (Avg.)” value was determined as 1769.3 mg in data set [3] (25 mg/kg per administration) and 1803.7 mg in data set [3] (50 mg/kg per administration). Further, the entries for the “Lung weight (Avg.)” value in data set [3] (25 mg/kg per administration) and in data set [3] (50 mg/kg per administration) were 182 mg and 165.3 mg, respectively. Also, the results for the “Right kidney weight (Avg.)” value in data set [3] (25 mg/kg per administration) and in data set [3] (50 mg/kg per administration) were 210.3 mg and 206.7 mg, respectively. The “Spleen weight (Avg.)” value in data set [3] (25 mg/kg per administration) is on record as 127.7 mg; in data set [3] (50 mg/kg per administration) it was 141.7 mg. Also, the “Thymus weight (Avg.)” value in data set [3] (25 mg/kg per administration) was found to be 63.7 mg; in data set [3] (50 mg/kg per administration), 76 mg. The “change in body weight” value in data set [3] (25 mg/kg per administration) and in data set [3] (50 mg/kg per administration) was “did not decrease in body weight” in each case. Further, the IC50 (with EL-4 mouse thymoma cells; in data set [4]; in data set [5]) was more than 100 µg/mL each time.

A word on the IC50: it is the concentration that inhibits the measured activity by half.
